Data from PMC6259253, “Synthesis of Benzofuran Derivatives via Rearrangement and Their Inhibitory Activity on Acetylcholinesterase” (Molecules, 2010).

Target: T1, AChE (Rattus norvegicus, UniProt P37136)
T1 construct: utilizing freshly prepared AChE from rats brain homogenate; from tissue; host or cells: rat whole brain except cerebellum, homogenate
Test: biochemical
Conditions: AChE from rat brain homogenate; Ellman's method; means ± standard deviation of three independent experiments; read-out: AChE inhibition (IC50)
Method: AChE activity was measured in duplicate by the spectrophotometric method reported by Ellman et al. with some modifications, mainly involving the source of the enzyme and the reference compound. Rat brain homogenate was used as the enzyme source. The whole brain except for the cerebellum was homogenized in nine volumes of 100 mM sodium phosphate buffer (pH 7.0). The test compounds were dissolved in dimethyl sulphoxide (DMSO). The AChE activity was expressed as a change in OD at 412 nm.

T1 sequence (P37136 32-614): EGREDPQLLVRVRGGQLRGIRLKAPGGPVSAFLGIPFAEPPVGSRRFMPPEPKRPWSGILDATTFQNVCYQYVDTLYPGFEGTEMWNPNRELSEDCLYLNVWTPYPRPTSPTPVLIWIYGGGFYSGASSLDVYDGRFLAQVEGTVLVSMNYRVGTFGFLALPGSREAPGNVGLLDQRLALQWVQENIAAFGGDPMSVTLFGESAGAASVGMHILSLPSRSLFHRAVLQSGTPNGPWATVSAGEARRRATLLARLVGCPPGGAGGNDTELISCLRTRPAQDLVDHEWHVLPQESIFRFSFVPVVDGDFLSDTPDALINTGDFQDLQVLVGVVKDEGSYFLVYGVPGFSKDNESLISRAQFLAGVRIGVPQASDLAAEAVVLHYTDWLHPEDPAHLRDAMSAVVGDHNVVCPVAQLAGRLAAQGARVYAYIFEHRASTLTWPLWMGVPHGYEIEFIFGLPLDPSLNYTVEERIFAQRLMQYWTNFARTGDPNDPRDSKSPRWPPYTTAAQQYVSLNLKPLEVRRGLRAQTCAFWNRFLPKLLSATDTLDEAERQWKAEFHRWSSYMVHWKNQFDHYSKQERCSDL

| Structure (SMILES) | IC50 [µM] |
| --- | --- |
| Cc1ccc2oc(C(=O)N3CCN(c4ccccc4C)CC3)c(N3CCOCC3)c2c1 [Compound A2, (4-o-Tolylpiperazin-1-yl)-(5-methyl-3-morpholinobenzofuran-2-yl) methanone] | 32 ± 0.1 |
| Cc1ccc(N2CCN(C(=O)c3oc4ccc(C)cc4c3N3CCOCC3)CC2)cc1 [Compound A4, (4-p-Tolylpiperazin-1-yl)-(5-methyl-3-morpholinobenzofuran-2-yl) methanone] | 11 ± 0.2 |
| COc1ccc(N2CCN(C(=O)c3oc4ccc(C)cc4c3N3CCOCC3)CC2)cc1 [Compound A5, (4-(4-Methoxyphenyl)piperazin-1-yl) (5-methyl-3-morpholinobenzofuran-2-yl) methanone] | 21 ± 0.1 |
